In data set [1] the test system is Mus musculus. The data set can be described thus: Antiinflammatory activity in Swiss albino mouse assessed as inhibition of carrageenan-induced paw edema at 200 mg/kg,po pretreated for 1 hr followed by carrageenan administration measured after 6 hrs relative to control. Format: functional. The settings on record: time 7 hrs. On the technique in general: Carrageenan injected into the paw causes an acute inflammation.

For data set [2], the system named is Mus musculus. Kind of data set: Antiinflammatory activity in Swiss albino mouse assessed as inhibition of carrageenan-induced paw edema at 200 mg/kg,po pretreated for 1 hr followed by carrageenan administration measured after 4 hrs relative to control. Format: functional. The settings on record: time 5 hrs.
Data set [3] has as its system HEK-293T. The data set can be described thus: Antiinflammatory activity against HEK293T cells assessed as fold increase in TNFalpha-induced NF-kappaB activity at 10 uM incubated for 1 hr followed by TNFalpha treatment for 5 hrs by luciferase based assay (reference value: 17.1). Format: functional, Homo sapiens.
The subject of data set [4] is THP-1. The data set can be described thus: Cytotoxicity against LPS-stimulated human THP-1 cells assessed as cell viability at 10 uM incubated for 12 hrs followed by LPS treatment measured after 4 hrs by PI staining based flow cytometry. The settings on record: time 16.0 hrs. Format: functional. For orientation: A flow cytometer gives signals particle by particle.
The nature of data set [5]: Stability in mouse plasma assessed as compound remaining at 10 uM measured upto 120 mins by LC-MS analysis. Format: ADME, cell-free. The settings on record: read-out: Stability.
Data set [6] is described as follows: MRT in fasted Swiss mouse at 100 mg/kg, po measured upto 48 hrs by LC-MS/MS analysis. Particulars: in vivo. The class given is ADME, organism-based.
The nature of data set [7]: AUC in fasted Swiss mouse at 100 mg/kg, po measured upto 48 hrs by LC-MS/MS analysis. Format: ADME, organism-based. Further details: dose 100 mg/kg, time < 48 hrs, route po. The settings on record: in vivo.
Data set [8] is described as follows: Cytotoxicity against African green monkey Vero cells incubated for 3 days by fluorescence based assay. Format: toxicity, cell-based. Particulars: chlorocebus sabaeus, time 3 day.
Data set [9] can be described thus: Clearance in fasted Swiss mouse at 100 mg/kg, po measured upto 48 hrs by LC-MS/MS analysis. The settings on record: in vivo. The class given is ADME, organism-based.
Data set [10] deals with Plasmodium falciparum. Kind of data set: Antimalarial activity against asynchronous chloroquine-resistant Plasmodium falciparum K1 assessed as parasite growth inhibition infected in erythrocytes incubated for 72 hrs by SYBR green dye based assay. Format: functional, organism-based. The settings on record: K1, 72 h.
Data set [11] in a line: Toxicity in Swiss mouse infected with chloroquine-resistant Plasmodium yoelii N67 assessed as mean survival time at 100 mg/kg/day, po for 4 days (reference value: 7.2 +/- 1.3 day). Format: organism-based. Particulars: in vivo, 96 h, time 4 day.
A short description of data set [12]: Cmax in fasted Swiss mouse at 100 mg/kg, po measured upto 48 hrs by LC-MS/MS analysis. Format: ADME, organism-based. Particulars: in vivo. More on the design: time < 48 hrs, dose 100 mg/kg, route po.
The subject of data set [13] is THP-1. The data set can be described thus: Antiinflammatory activity against human THP-1 cells assessed as inhibition of LPS-induced TNFalpha level at 10 uM incubated for 12 to 14 hrs followed by compound replenishment for 1 hr and subsequent LPS treatment for 4 hrs by ELISA assay (reference value: 93.43 %). Format: functional. Further details: scale not given: the % may be the effect or the level left. Particulars: time 17-19 hrs. Background: ELISA stands for enzyme-linked immunosorbent assay.

Data set [14] has as its system Plasmodium yoelii. The data set can be described thus: Antimalarial activity against chloroquine-resistant Plasmodium yoelii N67 infected in Swiss mouse assessed as parasite growth suppression at 100 mg/kg/day, po for 4 days measured on day 4 relative to control. Format: functional. Particulars: time 4 day.
Data set [15] is described as follows: Tmax in fasted Swiss mouse at 100 mg/kg, po measured upto 48 hrs by LC-MS/MS analysis. The class given is ADME, organism-based. The settings on record: in vivo.
The subject of data set [16] is Plasmodium yoelii. The data set can be described thus: Antimalarial activity against chloroquine-resistant Plasmodium yoelii N67 infected in Swiss mouse assessed as parasite growth suppression at 100 mg/kg/day, po for 4 days measured on day 7 relative to control. The class given is functional. The settings on record: time 7 day.
Data set [17] is described as follows: Volume of distribution in fasted Swiss mouse at 100 mg/kg, po measured upto 48 hrs by LC-MS/MS analysis. The class given is ADME, organism-based. Particulars: in vivo.
Data set [18] is described as follows: Stability in simulated intestinal fluid assessed as compound remaining at pH 6.8 measured upto 120 mins by LC-MS analysis. The class given is ADME. Particulars: read-out: Stability.
The nature of data set [19]: Half life in fasted Swiss mouse at 100 mg/kg, po measured upto 48 hrs by LC-MS/MS analysis. The class given is ADME, organism-based. The settings on record: in vivo.
Data set [20] can be described thus: Stability in simulated gastric fluid assessed as compound remaining at pH 1.2 measured upto 120 mins by LC-MS analysis. Format: ADME. Particulars: read-out: Stability.
Data set [21] relates to Plasmodium falciparum. Kind of data set: Antimalarial activity against asynchronous chloroquine-sensitive Plasmodium falciparum 3D7 assessed as parasite growth inhibition infected in erythrocytes incubated for 72 hrs by SYBR green dye based assay. Format: functional, organism-based. Particulars: 3D7, 72 h.
Data set [22] in a line: Stability in simulated physiological fluid assessed as compound remaining at pH 7.4 measured upto 120 mins by LC-MS analysis. Format: physicochemical. The settings on record: read-out: Stability.
For data set [23], the system named is HEK-293T. Kind of data set: Antiinflammatory activity against HEK293T cells assessed as fold increase in TNFalpha-induced NF-kappaB activity at 1 uM incubated for 1 hr followed by TNFalpha treatment for 5 hrs by luciferase based assay (reference value: 17.1). Format: functional, Homo sapiens. Particulars: time 6 hrs.
The test system of data set [24] is Mus musculus. The data set can be described thus: Antiinflammatory activity in Swiss albino mouse assessed as inhibition of carrageenan-induced paw edema at 100 mg/kg,po pretreated for 1 hr followed by carrageenan administration measured after 6 hrs relative to control. The class given is functional. Particulars: time 7 hrs.
Data set [25] relates to Mus musculus. Kind of data set: Antiinflammatory activity in Swiss albino mouse assessed as inhibition of carrageenan-induced paw edema at 25 mg/kg,po pretreated for 1 hr followed by carrageenan administration measured after 6 hrs relative to control. Particulars: time 7 hrs. The class given is functional.
A short description of data set [26]: AUC in fasted Swiss mouse at 50 mg/kg, po measured upto 48 hrs by LC-MS/MS analysis. The class given is ADME, organism-based. More on the design: time < 48 hrs, dose 50 mg/kg, route po. Particulars: in vivo.
Data set [27] has as its system THP-1. Kind of data set: Downregulation of LPS-induced JNK1/2 phosphorylation in human THP-1 cells at 10 uM incubated for 60 mins followed by LPS treatment 90 mins by […]. The class given is functional, cell-based. Particulars: time 150.0 min.
Data set [28] can be described thus: Volume of distribution in fasted Swiss mouse at 50 mg/kg, po measured upto 48 hrs by LC-MS/MS analysis. Format: ADME, organism-based. The settings on record: in vivo.
Data set [29] can be described thus: Cmax in fasted Swiss mouse at 50 mg/kg, po measured upto 48 hrs by LC-MS/MS analysis. Format: ADME, organism-based. More on the design: time < 48 hrs, dose 50 mg/kg, route po. The settings on record: in vivo.
For data set [30], the system named is Mus musculus. Kind of data set: Antiinflammatory activity in Swiss albino mouse assessed as inhibition of carrageenan-induced paw edema at 100 mg/kg,po pretreated for 1 hr followed by carrageenan administration measured after 4 hrs relative to control. The settings on record: time 5 hrs. The class given is functional.
Data set [31] can be described thus: Half life in fasted Swiss mouse at 50 mg/kg, po measured upto 48 hrs by LC-MS/MS analysis. The class given is ADME, organism-based. Particulars: in vivo.
Data set [32] relates to Mus musculus. The data set can be described thus: Antiinflammatory activity in Swiss albino mouse assessed as inhibition of carrageenan-induced paw edema at 50 mg/kg,po pretreated for 1 hr followed by carrageenan administration measured after 6 hrs relative to control. The class given is functional. Particulars: time 7 hrs.
For data set [33], the system named is Mus musculus. The data set can be described thus: Antiinflammatory activity in Swiss albino mouse assessed as inhibition of carrageenan-induced paw edema at 50 mg/kg,po pretreated for 1 hr followed by carrageenan administration measured after 4 hrs relative to control. The class given is functional. The settings on record: time 5 hrs.
Data set [34] relates to Mus musculus. Kind of data set: Antiinflammatory activity in Swiss albino mouse assessed as inhibition of carrageenan-induced paw edema at 25 mg/kg,po pretreated for 1 hr followed by carrageenan administration measured after 4 hrs relative to control. The class given is functional. The settings on record: time 5 hrs.
Data set [35] is described as follows: Clearance in fasted Swiss mouse at 50 mg/kg, po measured upto 48 hrs by LC-MS/MS analysis. Particulars: in vivo. The class given is ADME, organism-based.
The nature of data set [36]: Tmax in fasted Swiss mouse at 50 mg/kg, po measured upto 48 hrs by LC-MS/MS analysis. The class given is ADME, organism-based. Particulars: in vivo.
Data set [37] concerns THP-1. The data set can be described thus: Downregulation of LPS-induced ERK1/2 phosphorylation in human THP-1 cells at 10 uM incubated for 60 mins followed by LPS treatment 90 mins by […]. Format: functional, cell-based. The settings on record: time 150.0 min.
A short description of data set [38]: MRT in fasted Swiss mouse at 50 mg/kg, po measured upto 48 hrs by LC-MS/MS analysis. Format: ADME, organism-based. Particulars: in vivo.

Consider 4 molecules from ChEMBL document CHEMBL5360578, “Design, synthesis and evaluation of novel pyrrole-hydroxybutenolide hybrids as promising antiplasmodial and anti-inflammatory agents” (Eur J Med Chem, 2023).

For orientation: inhibition in vivo means the percentage by which the read-out fell short of the control. In general, MRT refers to a mean duration of stay, worked out from the concentration-time curve. In general, AUC refers to the area under the concentration-time curve, a measure of exposure. Broadly, the CC50 is the concentration at which the toxic effect on the cells reaches its halfway point. By CL/F is commonly meant the apparent clearance, not corrected for the fraction that reaches the circulation. In general, pIC50 refers to −log10 of the IC50, conventionally taken in molar units. One may read the Cmax as the highest concentration seen after dosing. By Tmax is commonly meant the time at which the peak concentration occurs. By half-life is commonly meant how long it takes for the measured level to halve.

pIC50: −log10 of the molar value. The source made the active and inactive calls. The rule behind the calls is not given here.

In the case of `CC(C)Cc1ccc(C(C)C(=O)O)cc1` (stereo unspecified) [IBUPROFEN], the results for the inhibition in vivo at 200 mg/kg with Mus musculus [1] and with Mus musculus [2] were 72% and 78%, respectively.
For `Cc1c(C(=O)Nc2ccccc2)c(-c2ccccc2)c(-c2ccc(C(C)C)cc2)n1CC1=CC(=O)OC1O` (stereo unspecified), the “fold change (FC)” value in the data set with HEK-293T [3] came out at 9.4. In addition, in the data set with THP-1 [4], the result was Active. The remaining at 2 h, 10 µM in data set [5] turned out to be 85.8%. This molecule returned an MRT in data set [6] of 5.34 h. The AUC at 48 h in data set [7] amounted to 1730 ng·h/mL. The same molecule returned a CC50 at 72 h in data set [8] of 126 µM. The molecule further gave an apparent clearance CL/F in data set [9] of 966 mL/min/kg. The pIC50 was 5.78 in the data set on Plasmodium falciparum [10] and 6.02 in the data set with Plasmodium falciparum [21]. In addition, the MST in data set [11] is 23.4 days. The same molecule returned a maximum concentration (Cmax) in data set [12] of 415 ng/mL. For the same molecule, the Activity in the data set on THP-1 [13] amounted to 91.44%; in the data set on Plasmodium yoelii [14], 77.79%; with Plasmodium yoelii [16], 100%. The time to peak (Tmax) in [15] was 0.25 h. This molecule displayed a Vd in data set [17] of 270.36 L/kg. Besides, the remaining at 2 h is 86.2% in data set [18], 85.4% in data set [20] and 94.8% in [22]. Further, the half-life in [19] is 3.23 h.
Consider `S=C(S)N1CCCC1` [PYRROLIDINE DITHIOCARBAMATE], for which, in the data set on HEK-293T [23], the “fold change (FC)” value is 2.3.
As to `Cc1c(C(=O)Nc2ccccc2)c(-c2ccccc2)c(-c2ccc(C(C)C)cc2)n1CCC1=CC(=O)OC1O` (stereo unspecified), in the data set on HEK-293T [3], the “fold change (FC)” value came out at 7.4. In addition, the inhibition in vivo at 100 mg/kg with Mus musculus [24] came out at 62%; in the data set with Mus musculus [30], 67%. Also, the inhibition in vivo at 25 mg/kg in the data set on Mus musculus [25] was 43%; with Mus musculus [34], 49%. This molecule also gave an exposure (AUC) at 48 h in [26] of 178 ng·h/mL. The outcome in the data set with THP-1 [4], with THP-1 [27] and in the data set with THP-1 [37] was Active. Moreover, the remaining at 2 h, 10 µM in data set [5] is 81.8%. Also, in [28], the Vd came out at 541.85 L/kg. For the same molecule, the concentration in [29] peaked (Cmax) at 369 ng/mL. The molecule further had a cytotoxic concentration (CC50) at 72 h in [8] of 138 µM. Besides, the figures for the pIC50 with Plasmodium falciparum [10] and in the data set with Plasmodium falciparum [21] were 5.38 and 6.01, respectively. Moreover, the MST in data set [11] was 12.2 days. Moreover, the half-life in [31] was 1.25 h. The values for the inhibition in vivo at 50 mg/kg in the data set on Mus musculus [32] and with Mus musculus [33] were 58% and 60%, respectively. The apparent clearance CL/F in [35] is 4870 mL/min/kg. In addition, the Activity amounted to 92.51% with THP-1 [13], 69.4% in the data set with Plasmodium yoelii [14] and 46.4% in the data set with Plasmodium yoelii [16]. Also, the remaining at 2 h in data set [18] was 89.9%; in [20], 89.7%; in [22], 89.8%. The Tmax in [36] is 0.25 h. Moreover, the MRT in [38] came to 0.98 h.
